Measured values as given in patent US7425548B2, “Materials and methods for immune system stimulation” (Variety Chidren's Hospital, priority 2004, dated 2008).

Assays:
[1] = tested on: CEM/VLB tumor cell line; assay: MTT cytotoxicity / cell proliferation assay; type: cell-based, human; conditions: 24 hours, concentrations as high as 1000 μg/ml
Description: (§1) FIGS. 4A-4B show cytotoxic analysis of RR1 in normal lymphocytes (a) and tumor cell lines (b). Cells (10^6) were treated with RR1 for 24 hours and cytotoxicity assay performed using MTT cell proliferation kit (Roche Biochemicals). The percentage of surviving cells over control was plotted against RR1 concentrations.
(§2) Immunostimulating Properties. To measure the immune stimulatory property of RR1, the activation of the different subsets of lymphocytes, syntheses of cytokines such as interleukin (IL)-1β, IL-2, IL-4, IL-6, IL-10, IL-12 p70 and p40, IL-18, interferon (IFN)-α and γ, Tumor Necrosis factor (TNF)-α and β, monocyte chemo-attractant protein (MCP)-1, synthesis of nitric oxide (NO), and the extent of oxidative stress elicited in human lymphocytes was analyzed. Normal lymphocytes were isolated by the histopaque density gradient method from fresh blood drawn from healthy volunteers and utilized for various assays. Human leukemic (CEM) and multidrug resistant (CEM/VLB) cell lines were grown in RPMI medium supplemented with 10% fetal bovine serum and antibiotics in 5% CO2 incubator at 37° C.

[2] = tested on: normal lymphocytes; assay: MTT cytotoxicity / cell proliferation assay; type: cell-based, human; conditions: 24 hours, concentrations as high as 1000 μg/ml
Description: as §1, §2

[3] = tested on: human monocyte cell line THP-1; assay: NO synthesis in monocyte cell line; type: cell-based
Description: NO levels are also reported to play an important role in the modulation of Th cell differentiation and polarization. Yamasaki et al. (Yamasaki, A. et al. Yonago Acta Medica, 1998, 44:7-15) and Taylor-Robinson et al. (Taylor-Robinson, A. W. et al. Eur. J. Immunol., 1994, 24:980-984) reported an inhibitory role of NO on Th1 cytokines while Bauer et al. (Bauer, H. et al., Immunol, 1997, 90:205-211) reported the same for Th1 as well as Th2 cytokines by NO from activated T cells. […] The enzyme iNOS produced a high output of NO from macrophages upon stimulation. […] The absence of iNOS induction by RR1 supports the conclusion that there is an insignificant increase in the production of NO. […] IFN-α, IFN-γ and TNF-α are known up-regulators of NO synthesis (Shin, J. Y. et al. Immunopharmcol. Immunotoxicol., 2002, 24:469-482; Hirazumi, A. and Furusawa, E. Phytother Res., 1999, 13:380-387).

[4] = tested on: C3a des Arg (alternative pathway); assay: Complement activation pathway EIA in normal blood; design: species or system human; conditions: RR1 0-100 μg/ml, 24 hours
Description: Normal blood samples from healthy volunteers were incubated with RR1 (0-100 μg) for 24 hours. Human complement C3a des Arg and C4a des Arg correlate EIA Kits (Assay Design Inc., Ann Arbor, Mich.) were used for quantification of classic and alternative pathway of complement activation using an ELISA procedure. ***p<0.001.
Complement activation pathway. Human complement C3a des Arg and C4a des Arg correlate-EIA Kits (ASSAY DESIGN Inc., Ann Arbor, Mich.) were used to measure the cleaved complement components (C3a des Arg and C4a des Arg) according to the manufacturer's protocols. In brief, 1 ml normal blood, drawn from healthy volunteer was incubated with 0-100 μg/ml of RR1 in a CO2 incubator at 37° C. for 24 hours. The treated blood samples were centrifuged at 2000×g at 4° C. and 225 μl of complement reagent ‘A’ was added to an equal volume of the sample supernatant and vortexed thoroughly. To this mixture, 50 μl of 10 N HCl was added, vortexed again and incubated at room temperature for 1 hour. […] The plate was incubated at 37° C. for 1 hour without shaking, added 50 μl of stop solution and absorbance was taken at 405 nm with a reference wavelength of 570 nm in a BIO-RAD Bench top plate reader.

[5] = tested on: RAW264.7 macrophages; assay: Nonopsonized binding of FITC-zymosan A bioparticles; type: cell-based, mouse; conditions: 1000 μg/ml RR1, 4° C.
Description: RR1 inhibits the binding and internalization of nonopsonic binding of zymosan A bioparticles in a dose-dependent manner. The cells were incubated with RR1 for 1 hour on ice (4° C.) in DMEM containing 0.5% FBS followed by zymosan A biparticles for 1 hour on ice. The cells were warmed for 7 minutes at 37° C. for internalization of zymosan A bioparticles and intracellular FITC fluorescence analyzed in a Coulter Elite flow cytometer.
Nonopsonized binding of RR1. To determine the inhibitory effect of RR1 on non-opsonized binding of zymosan A bioparticles, mouse monocyte/macrophage cells (0.5×10^6) were incubated with 0, 100, 500 and 1000 μg/ml of RR1 at 4° C. to prevent the local release of opsonins including complement (Ezekowitz, R. A. et al. J. Clin. Invest., 1985, 76:2368-2376; Brown, G. D. et al. J. Expt. Med., 2002, 196:407-412). After 1 hour incubation on ice, the cells were washed three times with pre-chilled culture medium, added FITC-conjugated zymosan A particles at a ratio of 25 particles/cell and kept on ice for another hour. The cells were washed with PBS twice and incubated in DMEM at 37° C. for 30 minutes in a CO2 incubator. The unbound zymosan particles were removed by extensive washing with medium and the intracellular fluorescence of the zymosan-FITC analyzed in a Coulter Elite flow cytometer.

[6] = target: T1, CR3 (CD11b) on RAW 264.7 macrophages (Mus musculus, UniProt P05555); assay: Blocking of CR3 with CD11b mAb, glucan-induced TNF-α synthesis; type: cell-based; conditions: anti-CD11b mAb 5 μg/ml, 37° C.
T1 construct: endogenous in cells; host or cells: RAW 264.7 mouse macrophages (ATCC)
T1 sequence (P05555 17-1153): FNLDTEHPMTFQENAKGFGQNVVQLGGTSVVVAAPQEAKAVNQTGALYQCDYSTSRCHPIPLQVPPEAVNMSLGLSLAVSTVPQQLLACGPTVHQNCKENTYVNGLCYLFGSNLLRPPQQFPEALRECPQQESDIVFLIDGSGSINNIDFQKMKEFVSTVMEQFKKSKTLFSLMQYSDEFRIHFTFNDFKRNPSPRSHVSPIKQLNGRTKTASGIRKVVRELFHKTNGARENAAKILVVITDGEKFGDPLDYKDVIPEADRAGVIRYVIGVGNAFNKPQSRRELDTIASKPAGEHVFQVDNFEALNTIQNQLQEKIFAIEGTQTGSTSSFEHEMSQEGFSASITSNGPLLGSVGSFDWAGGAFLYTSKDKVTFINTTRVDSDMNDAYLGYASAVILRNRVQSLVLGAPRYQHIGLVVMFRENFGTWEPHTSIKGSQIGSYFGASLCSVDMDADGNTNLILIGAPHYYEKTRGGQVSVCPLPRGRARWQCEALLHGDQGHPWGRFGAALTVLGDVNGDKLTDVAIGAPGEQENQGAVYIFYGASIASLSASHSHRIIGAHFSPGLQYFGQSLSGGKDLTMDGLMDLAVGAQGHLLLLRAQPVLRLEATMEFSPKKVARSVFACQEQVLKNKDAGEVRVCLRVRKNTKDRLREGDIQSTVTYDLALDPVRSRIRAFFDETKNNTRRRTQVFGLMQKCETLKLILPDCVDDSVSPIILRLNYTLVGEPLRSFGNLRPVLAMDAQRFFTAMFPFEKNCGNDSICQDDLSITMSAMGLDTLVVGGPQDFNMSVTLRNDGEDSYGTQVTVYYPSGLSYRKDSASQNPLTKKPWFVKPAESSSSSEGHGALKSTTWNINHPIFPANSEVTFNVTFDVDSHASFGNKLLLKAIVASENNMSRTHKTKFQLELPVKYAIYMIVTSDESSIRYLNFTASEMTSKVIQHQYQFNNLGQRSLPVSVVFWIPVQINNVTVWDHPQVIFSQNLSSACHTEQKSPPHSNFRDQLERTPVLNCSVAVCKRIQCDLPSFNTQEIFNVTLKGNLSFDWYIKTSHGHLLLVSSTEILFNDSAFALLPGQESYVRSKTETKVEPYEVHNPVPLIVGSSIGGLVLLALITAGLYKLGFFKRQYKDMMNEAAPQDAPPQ
T1 sequence (P11835 24-771 partner): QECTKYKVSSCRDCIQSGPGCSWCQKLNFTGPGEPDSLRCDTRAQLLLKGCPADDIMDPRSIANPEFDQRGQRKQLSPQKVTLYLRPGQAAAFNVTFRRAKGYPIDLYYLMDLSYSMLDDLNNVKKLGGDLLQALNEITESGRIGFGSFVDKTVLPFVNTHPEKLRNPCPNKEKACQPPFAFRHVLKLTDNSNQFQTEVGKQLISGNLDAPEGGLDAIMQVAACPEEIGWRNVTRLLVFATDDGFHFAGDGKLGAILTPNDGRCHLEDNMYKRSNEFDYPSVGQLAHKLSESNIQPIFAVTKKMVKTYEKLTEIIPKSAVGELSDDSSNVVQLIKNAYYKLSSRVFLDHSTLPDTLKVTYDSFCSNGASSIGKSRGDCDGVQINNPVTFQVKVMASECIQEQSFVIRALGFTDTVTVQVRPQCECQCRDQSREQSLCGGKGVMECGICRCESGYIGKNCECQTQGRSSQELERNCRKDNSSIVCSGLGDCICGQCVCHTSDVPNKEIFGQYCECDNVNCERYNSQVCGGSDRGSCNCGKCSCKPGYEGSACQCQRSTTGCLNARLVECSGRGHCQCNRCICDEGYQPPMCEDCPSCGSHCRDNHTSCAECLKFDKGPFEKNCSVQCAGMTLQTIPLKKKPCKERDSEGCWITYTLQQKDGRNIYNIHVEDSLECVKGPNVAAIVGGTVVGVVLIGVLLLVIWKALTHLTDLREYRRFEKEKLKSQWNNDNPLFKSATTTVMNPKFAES
Description: Effect Blocking of CR3 with CD11b mAb on opsonised binding. To examine whether the glucan specific receptors CR3 is involved in the opsonised recognition/binding of RR1 on macrophages, monoclonal antibodies (mAbs) specific for CR3 (Rat antimouse CD11b from BD BIOSCIENCES, San Jose, Calif.) were used for blocking the CR3. […] TNF-α released by the macrophages into the medium was analyzed by ELISA kit (BD Biosciences, San Jose, Calif.) (Brown, G. D. et al. J. Expt. Med., 2002, 196:407-412; Brown, G. D. et al. J. Exp. Med., 2003, 197:1119-1124).

- inhibition of nonopsonic binding of FITC-zymosan A bioparticles (fluorescence intensity) [5]: about 65%
- % reduction of secreted TNF-α ([6]; then glucan 100 μg/ml): 4.25 ± 3.66%
- % reduction of secreted TNF-α ([6]; then glucan 500 μg/ml): 1.89 ± 0.50%
Substance: (1,4)-α-D-glucan [RR1]
- direct cytotoxic or cell proliferating effect (MTT) [1]: no direct cytotoxic or cell proliferating effect
- direct cytotoxic or cell proliferating effect (MTT) [2]: no direct cytotoxic or cell proliferating effect
- NO levels with RR1 treatment [3]: did not induce any higher levels of NO
- levels of C3a des Arg of the alternative pathway [4]: step-wise increase
